Patent US9682928B2 (NeuroPro Therapeutics, Inc., priority 2009, dated 2017)
Several values for one entry are separate records, joined by “and”; a condition that tells them apart may be missing. Identical values can stand only once. Like-named read-outs stand apart in the source and are kept apart here.

Tests used:
[1] = system: Sprague-Dawley rats; assay: Kainic acid induced seizures in rats; assay type: in vivo, rat; set-up: key to Seizures Severity Mean ± SD (grade 0 to IV): seizure grade 0 = no response to IV = status epilepticus; conditions: for change in vivo at 20 µmol/kg / change in vivo at 100 mg/kg: Rattus norvegicus, 2 h; for change in vivo at 100 mg/kg: ip; for Reduction in seizure score / severity: bumetanide 100 mg/kg i.p. (274 umoles/kg); for Reduction in seizure severity / seizure score / Reduction in seizures / seizure activity: kainic acid 15 mg/kg, rat, 20 μmoles/kg (bumetanide 7.3 mg/kg i.p.)
Experimental: Formulation of kainic acid was performed by NTS as a stock solution by reconstituting kainic acid with (100%) saline that was stored at 4° C. Vehicle control received saline solution. […] The research investigators were blinded to the treatment groups.
Solutions were prepared fresh daily just prior to use; dosing of all 10 rats with any given compound occurred on a single day after preparing the dosing solution. […] Unused remaining dosing solutions were stored frozen.
Animals were maintained in a temperature- and light-controlled environment in accord with the principles and procedures of the National Institutes of Health Guidelines for Care and Use of Laboratory Animals. Seizures were induced in adult, male Sprague-Dawley rats (260-300 g) by injection of KA (15 mg/kg, i.p.). In addition, animals were injected with test compounds following kainic acid to determine the effects on protection from epilepsy. Animals were monitored behaviorally for seizures for 2 hours after injection.
Seizure activity was initially characterized as either yes (1) or no (0) within a 2 hour period following injection of KA. A seizure severity grade was assigned based on the maximal response achieved on a scale from 0 to IV as follows: 0, no response; I, single limb clonus and scratching; II, multiple limb clonus and staggering gait; […], limb clonus, tonic extension of limbs and falling; IV, continuous grade III seizures for longer than 30 min (status epilepticus).
The results were expressed as the mean±standard deviation (SD). The significance of difference in the epileptic data was analyzed using a one-way analysis of variance (ANOVA) followed by Fisher's post hoc test. Repeated-measures ANOVA were computed on the monitoring data and the significance of the difference among groups were evaluated by Fisher's post hoc test.
All groups were subjected to kainic acid.
The induction of seizures in rats with kainic acid was determined as either yes seizures (1) or no seizures (0).

[2] = Blood levels in rat following IP administration; assay type: in vivo; conditions: for Concentration of NTP-2000 (bumetanide) in rat blood: after NTP-2024 100 mg/kg IP
[3] = system: primate; assay: Acute primate seizure models; conditions: in vivo
From the text: FIG. 13 depicts epileptiform spikes and bursts generated using software for the automatic quantification epileptiform activity. FIG. 13A depicts after-discharge activity that was elicited by 4 seconds of electrical stimulation to primate sensory cortex. The software developed by Haglund and Hochman (2007) finds the envelope around a burst of spikes and calculates the duration of the burst, the number of spikes within the burst, and the average spike amplitude of all spikes comprising the burst.
FIG. 13B depicts a typical spike generated by an acute bicuculline focus in primate motor cortex. The bicuculline model generates epileptiform activity that is similar to spontaneous interictal spiking in human subjects. Analysis of the data by the software identifies the time of occurrence of each spike and its peak-to-peak amplitude. This software can automatically process entire data sets consisting of hours of recorded data from multiple traces and generate an output of the data. Statistical analysis of data sets from multiple experiments can then be used to analyze the effects of various treatments (e.g., compounds that suppress epliptiform activity). See Haglund and Hochman (2007) “Imaging of Intrinsic Optical Signals in Primate Cortex during Epileptiform Activity.” Epilepsia 48(Suppl. 4): 65-74; See also Haglund and Hochman (Feb. 23, 2005) J. Neurophysiol. 94: 907-918.

[4] = system: Mice; assay: 6 Hz (Mice); assay type: in vivo
[5] = system: adult mice (C57/B16); assay: Mesial temporal lobe epilepsy model (mice), hippocampal discharges; assay type: in vivo, mouse; conditions: for Cumulative duration of hippocampal discharges / Number of hippocampal discharges: 50 mg/kg for NTP-2014 and NTP-2026, 150 mg/kg for NTP-2024, NTP-2006, NTP-1007, NTP-1003; for Suppression of discharges through 80 minutes post-dose: 25 and 50 mg/kg (NTP-2014), 50 mg/kg (NTP-2026); for Significant decrease in cumulative duration of and total number of hippocampal discharges: dose-response study, mice
Experimental: Antiepileptic protocol: Up to eight adult mice (C57/B16) are injected with kainate (1 nmol in 50 nl) and are implanted with a bipolar electrode in the dorsal hippocampus using stereotaxic techniques under general anesthesia. […] Drug conditions are counter-balanced, the animals being used as their own controls. Digital EEG recordings are performed in freely moving animals for 20 min pre-injection and 80 min post-injection. The effects of the injected compound are compared versus vehicle injections and reference period (pre-dose). Upon completion of the experiment, standard histological analysis are performed to verify electrode location, cell losses in CA1, CA3 and hilus, as well as dentate gyrus dispersion. Only animals with all characteristics of MTLE are used in data analysis. […] The results below are normalized to the pre-dose condition for each of the treatment group including DMSO and saline vehicle controls. Doses of test article compounds were 50 mg/kg for NTP-2014 and NTP-2026 and 150 mg/kg for NTP-2024, NTP-2006, NTP-1007, and NTP-1003. Therefore the bumetanide, furosemide, piretanide, azosemide, and torsemide esters and amide analogs described herein may be used in therapeutic methods to treat seizures.

[6] = Solubility in dosing vehicle (0.2% HPMC in physiological saline); assay type: physicochemical; conditions: NTP-2024: 180 mg/kg or 18 mg/ml; NTP-2026: 100 mg/kg or 10 mg/ml
[7] = KA 15 mg/kg i.p., 20 μmoles/kg IP
[8] = KA 15 mg/kg i.p., 20 μmoles/kg IP, 2 hours
[9] = group 11, bumetanide 100 mg/kg (274 umoles/kg)
[10] = 20 μmoles/kg IP, vs DMSO control

Row | SMILES | Seizures Severity Mean ± SD (grade 0 to IV) [1, 7] | Seizures Mean ± SD (1 = yes, 0 = no) [1, 8] | Reduction in seizure severity / seizure score [1] | Reduction in seizures / seizure activity [1] [% reduction in] | Suppression of epileptiform activity [3] | Toxicity in 6 Hz study ([4]; 100 mg/kg) | Cumulative duration of hippocampal discharges [5] | Number of hippocampal discharges [5] | Suppression of discharges through 80 minutes post-dose [5] | Significant decrease in cumulative duration of and total number of hippocampal discharges [5] | Solubility issues at the highest dose tested [6] | further results
1 | CCCCNc1cc(C(=O)O)cc(S(N)(=O)=O)c1Oc1ccccc1 [Bumetanide, reference compound] | 0.7000 ± 0.8233 | 0.5000 ± 0.5270 | seizures (NS); 71% | 44 | significantly more than furosemide | – | – | – | – | – | – | change in vivo at 20 µmol/kg ([1]; 20 μmoles/kg IP, vs DMSO control, read-out: Percent reduction in Seizures): -44.4%; change in vivo at 20 µmol/kg ([1]; 20 μmoles/kg IP, vs DMSO control, read-out: Percent reduction in Seizures Severity): -70.8%; change in vivo at 100 mg/kg ([1]; read-out: Percent reduction in Seizures): -88.9%; change in vivo at 100 mg/kg ([1]; read-out: Percent reduction in Seizures Severity): -95.8%; Reduction in seizure score / severity [1]: seizures (S); 96%; Reduction in seizure score / severity ([1]; listed as bumetanide): 95.8%; Reduction in seizures ([1]; bumetanide 100 mg/kg i.p., listed as bumetanide): 88.9%; Seizures Mean ± SD (1 = yes, 0 = no) [1, 9]: 0.1000 ± 0.3162; Seizures Severity Mean ± SD (grade 0 to IV) [1, 9]: 0.1000 ± 0.3162; Reduction in seizure severity / seizure score ([1]; listed as bumetanide): 70.8%; Effect of inhibitor pre-treatment on exposures and half-life ([2]; rats): with inhibitor increased bumetanide exposures and half-life;
2 | CCCCN(CCCC)c1cc(C(=O)O)cc(S(N)(=O)=O)c1Oc1ccccc1 [NTP-2014, 3-Aminosulfonyl-5-N,N-dibutylamino-4-phenoxybenzoic acid] | – | – | – | – | – | mg/kg. No toxicity. | decreased | decreased | 25 and 50 mg/kg, near complete | Dose-response relationship | – | Suppression / activity in 6 Hz ([4]; 100 mg/kg, NTP-2014: all animals to 1 h, majority through 4 h, NTP-2026: 2 timepoints (2 hr, 4 hr)): Complete
3 | CCCCNc1cc(C(=O)NN2CCOCC2)cc(S(N)(=O)=O)c1Oc1ccccc1 [NTP-2024, N-Morpholinyl 3-Aminosulfonyl-5-N-butylamino-4-phenoxybenzamide] | 0.1000 ± 0.3162 | 0.1000 ± 0.3162 | 96% reduction in | 89 | efficacious in suppressing epileptiform activity | – | decreased | decreased | – | Dose-response relationship | Mild solubility issues | Percent reduction in Seizures [1, 10]: −88.9%; Percent reduction in Seizures Severity [1, 10]: −95.8%; Activity in 6 Hz ([4]; doses up to 200 mg/kg, no metabolic inhibitor coadministered): No activity at doses; Concentration of NTP-2024 in rat blood ([2]; NTP-2024 100 mg/kg IP, PBx pretreated, 15 m): 3939.86 ng/mL and 4358.32 ng/mL and 6418.34 ng/mL; Concentration of NTP-2000 (bumetanide) in rat blood ([2]; PBx pretreated, 5 m): 4.155 ng/mL and 3.804 ng/mL and 3.493 ng/mL; Concentration of NTP-2000 (bumetanide) in rat blood ([2]; PBx pretreated, 30 m): 13.3456 ng/mL and 10.0076 ng/mL and 8.433 ng/mL; Concentration of NTP-2000 (bumetanide) in rat blood ([2]; PBx pretreated, 1 h): 12.2513 ng/mL and 9.158 ng/mL and 8.065 ng/mL; Concentration of NTP-2000 (bumetanide) in rat blood ([2]; PBx pretreated, 2 h): 15.0994 ng/mL and 8.16 ng/mL and 8.949 ng/mL; Degradation to bumetanide in the blood ([2]; i.p., rats): does not readily degrade to bumetanide; Concentrations in blood and in brain tissue ([2]; rats pretreated with inhibitor): Rats pretreated with inhibitor demonstrated high concentrations
4 | CCCCNc1cc(C(=O)N(C)CCCN(C)C)cc(S(N)(=O)=O)c1Oc1ccccc1 [NTP-2026, N-(3-(Dimethylamino)propyl)-N-methyl 3-Aminosulfonyl-5-N-butylamino-4-phenoxybenzamide] | – | – | – | – | – | No toxicity. | decreased | decreased | 50 mg/kg, near complete suppression of | Dose-response relationship | Significant solubility issues | –
